# Values quoted from earlier work as cited in US8524772B2, “Controlled release of N-acetylcysteine (NAC) for reduction of systemic and/or vascular inflammation” (Tiara Pharmaceuticals, Inc., priority 2008, dated 2013).
# Columns and labels:
# [1] = system: LDL; conditions: in vitro
# [2] = system: lipid loaded macrophages (foam cells)
compound,measurement,setting,value
"CC(=O)NC(CS)C(=O)O (stereo not drawn) [NAC, 2-acetamido-3-sulfanylpropanoic acid]",oxidative modification of LDL,[1],inhibited
same,secondary oxidation of LDL by previously oxidized LDL,[1],markedly inhibited
same,ability of foam cells to degrade vascular matrix,[2],reduce
